{"source": "patent US20150056702A1", "about": "“METHOD AND KIT FOR CULTURING STEM CELLS” (China Medical University, priority 2013, published 2015)", "type_in_all_cases": "cell-based, mouse", "key": {"Oct4": {"test_system": "Oct4", "assay": "Real-time PCR, Oct4 gene expression in ES cells", "conditions": "for Oct4 gene expression level: ES cells, control group = 100%", "procedure": "(§1) The following steps were conducted in order to culture ES cells: • (1) preparing a stem cell medium: DMEM+15% heat-inactivated FBS+NEAA (0.1 mM)+L-glutamine (2 mM)+β-mercaptoethanol (0.2 mM); • (2) preparing a BP-containing solution: dissolving BP into DMSO to form a BP-containing solution (100 mg/ml), and storing the solution at −20° C.; • (3) adding different amounts of the BP-containing solution in step (2) into the stem cell medium in step (1) to form different BP-containing mediums, wherein the amount of BP were about 5, 10, 20 or 40 μg per milliliter of the stem cell medium respectively (i.e. the experimental group mediums: BP5, BP10, BP20 and BP40); and • (4) using the BP-containing medium of in step (3) to culture a ES cell (retrieved from the embryos in the blastula stage of 129sv/J mice) at 37° C., 5% CO2 and 95% humidity on the feeder cells provided by Example 1.\n(§2) An experimental group medium (BP5, BP10, BP20 or BP40) and a control group medium (without BP) were added respectively to perform the following steps. ES cells were cultured with an initial density of 1×10^4 per well in a 6-well culture dish. The medium was removed until the cells growth to be about 70 to 80% confluence, and then 1 ml TRIzol (Invitrogen) was added into each well. The cells were incubated for 5 minutes, and then was scraped by a spatula and placed into a 1.5 ml microtube to be lysed adequately. Chloroform (0.2 ml) was added into the microtubes. The mixture was shaken up and down for 15 seconds, and then incubated at room temperature for 2 to 3 minutes. Thereafter, the mixture was centrifuged at 12000 rpm at 4° C. for 15 minutes, and the supernatant was removed into another 1.5 ml microtube and isopropanol (0.5 ml) was added into the microtube with well mixing. The mixture was incubated at room temperature for 10 minutes and then centrifuged at 12000 rpm at 4° C. for 10 minutes. The supernatant was then removed. One ml of 70% ethanol containing DEPC.H2O was used to wash the remaining sediment. The sediment was centrifuged at 7500 rpm at 4° C. for 5 minutes. The supernatant was removed. The sediment was dried by vacuum suction. The dried samples were dissolved in about 0.01 to 0.02 ml of DEPC.H2O to obtain the experimental group RNA and control group RNA. Both groups were stored at −80° C.\n(§3) The OD value of RNA samples in both groups obtained from the above Experiment I were measured at a wavelength of 260 nm (RNA: OD260=1 for a 40 μg/mL solution). Each RNA sample (2 μl) was added with RNA-free water until the volume of the sample reached 10 μl. Two μl oligo (dT) (100 μg/ml) was added into each sample, and the samples were incubated at 65° C. for 5 minutes. Then, the samples were immediately placed on ice and spun down. Next, 6.5 μl of a reaction solution [4 μl of 5× buffer+1 μl of 0.1 M DTT+1 μl of RNase out+0.5 μl of SSIII (Invitrogen)] was added into each of the samples, and the samples were incubated at 50° C. for about 30 to 60 minutes and at 75° C. for 15 minutes to obtain the experimental group cDNA and control group cDNA. Both groups were stored at −80° C.\n(§4) This experiment was used to detect the expression levels of ES cell-related genes, i.e., Oct4 and Sox2, etc. […] The cycle threshold (CT) values were measured."}, "Sox2": {"test_system": "Sox2", "assay": "Real-time PCR, Sox2 gene expression in ES cells", "conditions": "for Sox2 gene expression level: ES cells, control group = 100%", "procedure": "as §1, §2, §3, §4"}, "ES cells": {"test_system": "ES cells", "assay": "Examination of cell survival (MTT assay)", "conditions": "for relative cell survival rate: control = 100", "procedure": "as §1\nIn this example, 3-(4,5-dimethylthiazol-2-yl)-2,5-diphenyl tetrazolium bromide (MTT) was used to determine if the cell survival rate of stem cells will be influenced when BP was served as a substitute for LIF.\nMTT is a water-soluble tetrazolium salt which can react in the mitochondrial respiratory chain in living cells, to metabolize and reduce the tetrazolium bromide shown in the structure of MTT and to form an water-insoluble purple crystal formazan under the reaction of succinate dehydrogenase (SDH) and cytochrome c (cyt c). The amount of the produced crystal is directly proportional to the number of living cells (because the SDH will disappear from dead cells and the MTT cannot be reduced). Furthermore, mitochondrium is an organelle in cells most sensitive to the environment, and thus, the MTT assay could serve as a marker of the survival rate of cells treated by a drug.\nAn experimental group medium (BP5, BP10, BP20 or BP40) and a control group medium (without BP) were added respectively into a 96-well micro-culture plate to culture ES cells with an initial density of 5×10^3 per well for 24 to 72 hours. Then, 10 μl of 0.5 mg/ml MTT (Sigma) was added into each well and the cells were incubated in an incubator at 37° C. and 5% CO2 for 2 to 4 hours. The medium was removed, and 100 μl of DMSO was added into each well and maintained at 37° C. for 10 minutes. The absorbances of the samples were measured at a wavelength of 570 nm to obtain the data of the experimental group (with BP) and control group (without BP). The absorbance of control group was served as a reference to calculate the relative cell survival rate of each experimental group."}, "[1]": {"conditions": "BP10 medium (about 10 μg BP/ml)"}, "[2]": {"conditions": "BP20 medium (about 20 μg BP/ml)"}, "[3]": {"conditions": "BP40 medium (about 40 μg BP/ml)"}, "[4]": {"conditions": "BP-containing ES cell culture medium vs control group, result in words"}}, "data": [{"smiles": "CCCC=C1OC(=O)c2ccccc21", "note": "[BP, n-butylidenephthalide]", "values": [{"measurement": "Oct4 gene expression level", "setting": "Oct4; BP5 medium (about 5 μg BP/ml)", "value": 119, "unit": "%"}, {"measurement": "Oct4 gene expression level", "setting": "Oct4; [1]", "value": 419, "unit": "%"}, {"measurement": "Oct4 gene expression level", "setting": "Oct4; [2]", "value": 258, "unit": "%"}, {"measurement": "Oct4 gene expression level", "setting": "Oct4; [3]", "value": 144, "unit": "%"}, {"measurement": "gene expression level of Oct4", "setting": "Oct4; [4]", "value": "significantly up-regulated"}, {"measurement": "Sox2 gene expression level", "setting": "Sox2; BP5 medium (about 5 μg BP/ml)", "value": 91, "unit": "%"}, {"measurement": "Sox2 gene expression level", "setting": "Sox2; [1]", "value": 245, "unit": "%"}, {"measurement": "Sox2 gene expression level", "setting": "Sox2; [2]", "value": 210, "unit": "%"}, {"measurement": "Sox2 gene expression level", "setting": "Sox2; [3]", "value": 140, "unit": "%"}, {"measurement": "gene expression level of Sox2", "setting": "Sox2; [4]", "value": "significantly up-regulated"}, {"measurement": "relative cell survival rate", "setting": "ES cells; BP5 medium (about 5 μg BP/ml), 24 hours", "value": 95.212}, {"measurement": "relative cell survival rate", "setting": "ES cells; BP5 medium (about 5 μg BP/ml), 72 hours", "value": 99.816}, {"measurement": "relative cell survival rate", "setting": "ES cells; BP10 medium (about 10 μg BP/ml), 24 hours", "value": 98.092}, {"measurement": "relative cell survival rate", "setting": "ES cells; BP10 medium (about 10 μg BP/ml), 72 hours", "value": 93.848}, {"measurement": "relative cell survival rate", "setting": "ES cells; BP20 medium (about 20 μg BP/ml), 24 hours", "value": 95.076}, {"measurement": "relative cell survival rate", "setting": "ES cells; BP20 medium (about 20 μg BP/ml), 72 hours", "value": 92.399}, {"measurement": "relative cell survival rate", "setting": "ES cells; BP40 medium (about 40 μg BP/ml), 24 hours", "value": 97.550}, {"measurement": "relative cell survival rate", "setting": "ES cells; BP40 medium (about 40 μg BP/ml), 72 hours", "value": 90.128}, {"measurement": "survival rate of stem cells", "setting": "ES cells; addition of BP into the ES cell medium, result in words", "value": "will not affect the survival rate of stem cells"}]}]}
